From patent US9944589B2, “Cycloproplyamine derivatives useful as inhibitors of histone demethylases KDM1A” (Istituto Europeo de Oncologia S.r.L., priority 2012, dated 2018)
“And” between values parts separate entries of the source, which are not always exact repeats. Equal values may be shown once. Where a name gives a salt, the structure may show the parent alone.

The compounds below were run on Acute promyelocytic leukemia NB4 cells (assay: Cell growth (CellTiter-Fluor cell viability assay)). Conditions: Homo sapiens, NB-4, 48 h, 100 μM, read-out: inhibition at 100 μM, cell growth inhibitory assay.
Type: cell-based
Source text: CellTiter-Flor® (Promega) is as a nonlytic, single-reagent-addition fluorescence assay that measures the relative number of living cells in a culture population after experimental manipulation. The CellTiter-Fluor™ Cell Viability Assay measures the conserved and constitutive protease activity within live cells and therefore acts as a marker for cell viability.
Acute promyelocytic leukemia NB4 cells, (obtained from the Deutsche Sammlung von Mikroorganismen and Zellkulturen) in exponential growth, were incubated for 48 h with different concentrations of the inhibitors. After 48 h a volume of CellTiter-Fluor® Reagent equal to one fifth of volume of cell culture medium was added. The content was mixed and incubates for at least 90 min at 37° C. degree to obtain a stable signal. The fluorescence was recorded using an excitation wavelength of 360 nm and an emission at 535 nm. The IC50 was calculated using GraphPad Software.
Work on `N[C@@H]1C[C@H]1c1ccccc1` (racemic) [tranylcypromine, reference compound] yielded an inhibition at 100 µM of 10%.

What follows are compounds tested against T1, human recombinant KDM1A (LSD1)/CoRest (Homo sapiens, UniProt O60341) (assay: Assay of enzyme inhibition of KDM1A (LSD1), Amplex UltraRed/peroxidase coupled). Conditions: 15 min preincubation, 4.5 μM mono-methylated H3-K4 peptide, range classes, read-out: IC50 [μM], KDM1A inhibition assay.
T1 construct: made in house; host or cells: E. coli
Type: biochemical
Experimental: The experiments were performed using a mono-methylated H3-K4 peptide containing 21 amino acids (custom synthesis done by Thermo Scientific) as substrate and in a 50 mM TRIS, pH 8, 0.05 mg/ml BSA buffer.
The demethylase activity was estimated under aerobic conditions and at RT by measuring the release of H2O2 produced during the catalytic process by the Amplex® UltraRed detection system coupled with peroxidase assay. Briefly, a fixed amount of KDM1A/CoRest complex was incubated at RT for 15 minutes in the absence and/or the presence of various concentrations of inhibitor (e.g. from 0 to 100 μM, depending on the inhibitor strength) and of Amplex® UltraRed detection system coupled with peroxidase assay. The inhibitors were tested twice in duplicates at each concentration. […] The conversion of the Amplex® Ultra Red reagent to resorufin was monitored in continuous by fluorescence (excitation at 540 nm, emission at 590 nm) using a microplate reader (Infinite 200, Tecan). Arbitrary units were used to measure the level of H2O2 produced in the absence and/or in the presence of inhibition. The maximum demethylase activity of KDM1A/CoRest was obtained in the absence of inhibitors and corrected for background fluorescence in the absence of KDM1A/CoRest. The IC50 was calculated using GraphPad Software.
`N[C@]1(c2ccccc2)C[C@H]1c1ccc(NC(=O)Cc2ccc3ccccc3c2)cc1` (relative stereo) [Example A-107, N-[4-(trans-2-amino-2-phenyl-cyclopropyl)phenyl]-2-(2-naphthyl) acetamide 2,2,2-trifluoroacetic acid] showed an IC50 of less than 0.1 µM.
Compound `N[C@]1(c2ccccc2)C[C@H]1c1ccc(NC(=O)c2ccncc2)cc1` (relative stereo) [Example A-108, N-[4-(trans-2-amino-2-phenyl-ccyclopropyl)phenyl] pyridine-4-carboxamide dihydrochloride] has an IC50 of less than 0.1 µM.
In the case of `CN1CCC(c2ccc(C(=O)Nc3ccc([C@@H]4C[C@]4(N)c4ccccc4)cc3)cc2)CC1` (relative stereo) [Example A-109, N-[4-(trans-2-amino-2-phenyl-cyclopropyl]phenyl)-4-(1-methyl-4-piperidyl) benzamide dihydrochloride], the IC50 is reported as less than 0.1 µM.
`CN1CCN(c2ccc(C(=O)Nc3ccc([C@@H]4C[C@]4(N)c4ccccc4)cc3)cc2)CC1` (relative stereo) [Example A-110, N-[4-(trans-2-amino-2-phenyl-cyclopropyl)phenyl]-4-(4-methylpiperazin-1-yl)benzamide hydrochloride] showed an IC50 of less than 0.1 µM.
Compound `N[C@]1(c2ccccc2)C[C@H]1c1ccc(NC(=O)c2cccc(N3CCOC3=O)c2)cc1` (relative stereo) [Example A-111, N-[4-(trans-2-amino-2-phenyl-cyclopropyl)phenyl]-3-(2-oxooxazolidin-3-yl)benzamide hydrochloride] has an IC50 of less than 0.1 µM.
In the case of `N[C@]1(CCc2ccccc2)C[C@H]1c1ccc(NC(=O)c2ccncc2)cc1` (relative stereo) [Example A-112, N-[4-(trans-2-amino-2-phenethyl-cyclopropyl)phenyl] pyridine-4-carboxamide hydrochloride], the IC50 is reported as less than 0.1 µM.
Compound `CC[C@@]1(N)C[C@H]1c1ccc(NC(=O)c2ccc(NCCO)cc2)cc1` (relative stereo) [Example A-120, N-[4-(trans-2-amino-2-ethyl-cyclopropyl]phenyl)-4-(2-hydroxyethylamino)benzamide hydrochloride] has an IC50 of 0.1 to 1 µM.
With `CC[C@@]1(N)C[C@H]1c1ccccc1-n1cc(-c2ccccc2)nn1` (relative stereo) [Example A-125, trans 1-ethyl-2-[2-(4-phenyltriazol-1-yl)phenyl]cyclopropan amine hydrochloride] the IC50 was 0.1 to 1 µM.
With `COc1cccc([C@@H]2C[C@]2(N)Cc2ccccc2)c1` (relative stereo) [Example A-129, trans 1-Benzyl-2-(3-methoxyphenyl)cyclopropanamine hydrochloride] the IC50 was 0.1 to 1 µM.
Compound `CC[C@@]1(N)C[C@H]1c1cccc(N2CCN(c3ccccc3)C2=O)c1` (relative stereo) [Example A-130, 1-[3-[(trans-2-amino-2-ethyl-cyclopropyl]phenyl]-3-phenyl-imidazolidin-2-one hydrochloride] has an IC50 of 0.1 to 1 µM.
For `CC[C@@]1(N)C[C@H]1c1ccc(-n2cc(-c3ccccc3)nn2)cc1` (relative stereo) [Example A-131, trans-1-Ethyl-2-[4-(4-phenyltriazol-1-yl)phenyl]cyclopropanamine hydrochloride], the IC50 was less than 0.1 µM.
`N[C@]1(CNC2CC2)C[C@H]1c1ccccc1` (relative stereo) [Example B-4, trans 1-[(cyclopropylamino)methyl]-2-phenyl-cyclopropanamine dihydrochloride] gave an IC50 of 1 to 5 µM.
In the case of `CN1CCN(C[C@@]2(N)C[C@H]2c2ccccc2)CC1` (relative stereo) [Example B-5, trans-1-[(4-methylpiperazine-1-yl)methyl]-2-phenyl-cyclopropanamine trihydrochloride], the IC50 is reported as 1 to 5 µM.
`CC[C@@]1(NCC(=O)N2CCN(C)CC2)C[C@H]1c1ccccc1` (relative stereo) [Example C-6, trans-2-[[(1-ethyl-2-phenyl-cyclopropyl]amino]-1-(1-methylpiperazin-1-yl)ethanone trifluoroacetate] showed an IC50 of 0.1 to 1 µM.
With `CC[C@@]1(NCc2ccccc2)C[C@H]1c1ccccc1` (relative stereo) [Example C-13, trans-N-benzyl-1-ethyl-2-phenyl-cyclopropanamine hydrochloride] the IC50 was 1 to 5 µM.
Work on `C[C@@]1(NCc2cnc(N)nc2)C[C@H]1c1ccccc1` (relative stereo) [Example C-19, 5-{[(trans-1-methyl-2-phenyl-cyclopropyl)amino]methyl} pyrimidin-2-amine dihydrochloride] yielded an IC50 of 0.1 to 1 µM.
In the case of `COc1ncccc1CN[C@]1(C)C[C@H]1c1ccccc1` (relative stereo) [Example C-20, trans-N-[(2-methoxy-3-pyridyl)methyl]-1-methyl-2-phenyl-cyclopropanamine], the IC50 is reported as 1 to 5 µM.
In the case of `C[C@@]1(NCc2ccc3c(c2)OCCO3)C[C@H]1c1ccccc1` (relative stereo) [Example C-21, trans-N-(2,3-dihydro-1,4-benzodioxin-6-ylmethyl)-1-methyl-2-phenyl-cyclopropanamine 2,2,2-trifluoroacetic acid], the IC50 is reported as 0.1 to 1 µM.
Compound `CN1CCN(C(=O)CN[C@]2(c3ccccc3)C[C@H]2c2ccccc2)CC1` (relative stereo) [Example C-23, 2-[[trans-1,2-diphenylcyclopropyl]amino]-1-(4-methylpiperazin-1-yl)ethanone dihydrochloride] has an IC50 of 0.1 to 1 µM.
Work on `CN1CCN(C(=O)CN[C@]2(C)C[C@H]2c2ccccc2)CC1` (relative stereo) [Example C-27, 2-[[trans-1-methyl-2-phenyl-cyclopropyl]amino]-1-(4-methylpiperazin-1-yl)ethanone dihydrochloride] yielded an IC50 of less than 0.1 µM.
`CN1CCN(C(=O)CN[C@@]2(C)C[C@H]2c2ccccc2)CC1` (relative stereo) [Example C-28, 2-[[cis-1-methyl-2-phenyl-cyclopropyl]amino]-1-(4-methylpiperazin-1-yl)ethanone dihydrochloride] was tested, and the IC50 was 1 to 5 µM.
Work on `CN[C@]1(C)C[C@H]1c1ccccc1` (relative stereo) [Example C-29, trans-N,1-dimethyl-2-phenyl-cyclopropanamine hydrochloride] yielded an IC50 of 1 to 5 µM.
Compound `CC[C@@]1(NCCN2CCCCC2)C[C@H]1c1ccccc1` (relative stereo) [Example C-31, trans-1-Ethyl-2-phenyl-N-[2-(1-piperidyl)ethyl]cyclopropanamine dihydrochloride] has an IC50 of 0.1 to 1 µM.
`C[C@@]1(NCc2nnc(N)o2)C[C@H]1c1ccccc1` (relative stereo) [Example C-32, 5-[[[trans-1-methyl-2-phenyl-cyclopropyl]amino]methyl]-1,3,4-oxadiazol-2-amine] showed an IC50 of 0.1 to 1 µM.
For `CC(=O)Nc1ccc([C@@]2(N)C[C@H]2c2ccccc2)cc1` (relative stereo) [Example D-6, N-[4-[trans-1-amino-2-phenyl-cyclopropyl]phenyl]acetamide hydrochloride], the IC50 was 0.1 to 1 µM.
`N[C@]1(Cc2ccc3ccccc3c2)C[C@H]1c1ccc(-n2cc(-c3cccc(NC(=O)OCc4ccccc4)c3)nn2)cc1` [Example A-123, benzyl N-[3-[1-[4-[2-amino-2-(2-naphthylmethyl)cyclopropyl]phenyl]triazol-4-yl]phenyl] carbamate hydrochloride] was tested, and the IC50 was less than 0.1 µM.
Compound `CC[C@]1(N)C[C@@H]1c1ccc(NC(=O)c2ccc(-c3ccccc3)cc2)cc1` [Example A-128, N-[4-[(1R,2S)-2-amino-2-ethyl-cyclopropyl]phenyl]-4-phenyl-benzamide hydrochloride] has an IC50 of less than 0.1 µM.
For `CN1CCN(C(=O)CN[C@@]2(C)C[C@@H]2c2ccccc2)CC1` [Example C-3, 2-[[(1S,2R)-1-methyl-2-phenyl-cyclopropyl]amino]-1-(4-methylpiperazin-1-yl)ethanone dihydrochloride], the IC50 was < 0.1 µM and 1 to 5 µM.
For `C[C@]1(NCC(=O)N2CC[C@H](N)C2)C[C@@H]1c1ccccc1` [Example C-5, 1-[(3S)-3-aminopyrrolidin-1-yl]-2-[[(1S,2R)-1-methyl-2-phenyl-cyclopropyl]amino] ethanone hydrochloride], the IC50 was 0.1 to 1 µM.
`CN1CCN(C(=O)CN[C@]2(C)C[C@H]2c2ccccc2)CC1` [Example C-25, 2-[[(1R,2S)-1-methyl-2-phenyl-cyclopropyl]amino]-1-(4-methylpiperazin-1-yl)ethanone 2,2,2-trifluoroacetic acid] gave an IC50 of less than 0.1 µM.
With `CN1CCN(C(=O)CN[C@]2(C)C[C@@H]2c2ccccc2)CC1` [Example C-26, 2-[[(1R,2R)-1-methyl-2-phenyl-cyclopropyl]amino]-1-(4-methylpiperazin-1-yl)ethanone 2,2,2-trifluoroacetic acid] the IC50 was 1 to 5 µM.
